In ChEMBL document CHEMBL1140266, “(2R)-2-methylchromane-2-carboxylic acids: discovery of selective PPARalpha agonists as hypolipidemic agents” (Bioorg Med Chem Lett, 2005):

Columns and labels:
[1] = molecular target: T1, Peroxisome proliferator-activated receptor alpha (Homo sapiens, UniProt Q07869); type: functional, cell-based, COS-1
T1 sequence (Q07869 whole entry): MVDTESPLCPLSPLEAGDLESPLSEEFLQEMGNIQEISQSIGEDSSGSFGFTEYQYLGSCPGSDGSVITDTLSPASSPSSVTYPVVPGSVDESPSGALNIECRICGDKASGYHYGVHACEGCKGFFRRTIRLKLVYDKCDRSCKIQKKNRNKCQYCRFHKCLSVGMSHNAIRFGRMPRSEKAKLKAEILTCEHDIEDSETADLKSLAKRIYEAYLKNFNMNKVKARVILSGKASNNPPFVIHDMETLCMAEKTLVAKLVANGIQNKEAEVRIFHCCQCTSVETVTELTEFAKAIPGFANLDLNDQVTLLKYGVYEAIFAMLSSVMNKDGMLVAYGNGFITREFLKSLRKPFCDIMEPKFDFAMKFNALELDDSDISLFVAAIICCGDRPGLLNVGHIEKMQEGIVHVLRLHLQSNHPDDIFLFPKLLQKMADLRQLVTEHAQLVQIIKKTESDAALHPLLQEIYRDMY
Description: Agonist activity against human PPARalpha in COS-1 cell Gal4 assay

[2] = molecular target: T1, Peroxisome proliferator-activated receptor alpha
Description: In vitro binding affinity against human PPARalpha

in vivo [3] = settings: Sprague-Dawley, rat, iv, 0.5 mg/kg
Description: Hail-life period determined against Sprague-Dawley Rat at 0.5 mg/kg after intravenous administration; (Number of rats = 3)

in vivo [4] = settings: Sprague-Dawley, rat, iv, 0.5 mg/kg; remark: listed apart in the source
[5] = molecular target: T2, Peroxisome proliferator-activated receptor delta (Homo sapiens, UniProt Q03181)
T2 sequence (Q03181 whole entry): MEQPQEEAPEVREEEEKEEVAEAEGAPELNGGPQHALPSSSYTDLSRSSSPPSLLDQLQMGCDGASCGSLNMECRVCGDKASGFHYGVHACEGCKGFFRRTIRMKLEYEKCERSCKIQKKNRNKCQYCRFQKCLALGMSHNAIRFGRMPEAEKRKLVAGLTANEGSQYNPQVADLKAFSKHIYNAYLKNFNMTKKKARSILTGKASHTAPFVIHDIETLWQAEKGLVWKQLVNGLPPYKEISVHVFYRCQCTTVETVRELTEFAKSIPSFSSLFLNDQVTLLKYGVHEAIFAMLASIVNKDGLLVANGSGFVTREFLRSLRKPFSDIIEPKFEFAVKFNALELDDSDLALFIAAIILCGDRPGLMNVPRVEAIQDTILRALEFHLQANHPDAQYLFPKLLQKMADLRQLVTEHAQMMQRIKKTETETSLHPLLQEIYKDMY
Description: In vitro binding affinity against human PPARdelta

in vivo [6] = settings: Sprague-Dawley, rat, po, 2 mg/kg
Cricetinae gen. sp. [7] = type: functional; settings: at 10 mg/kg
Description: In vivo efficacy at 10 mpk against Hamster for triglceride lowering effect after oral dosing; Number of animals= 9 (vehicle 0.5% methylcellulose)

Cricetinae gen. sp. [8] = type: functional, Cricetulus griseus; settings: at 10 mg/kg
Description: In vivo efficacy at 10 mpk against Hamster for cholesterol lowering effect after oral dosing; Number of animals= 9 (vehicle 0.5% methylcellulose)

Cricetinae gen. sp. [9] = type: functional, Cricetulus griseus; settings: at 10 mg/kg; remark: listed apart in the source
Description: In vivo efficacy at 10 mpk against Hamster for triglyceride lowering effect after oral dosing; Number of animals= 9 (vehicle 0.5% methylcellulose)

[10] = molecular target: T1, Peroxisome proliferator-activated receptor alpha; type: functional, cell-based; settings: cos-1
Description: Agonist activity against human PPARalpha in COS-1 cell Gal4 assay; NA= Not active (less than 20% activation at 10 uM)

in vivo [11] = settings: beagle, dog, iv, 0.5 mg/kg
in vivo [12] = settings: rhesus monkey, po, 2 mg/kg
Description: Bioavailability determined against adult Rhesus monkey at 2 mg/kg after peroral administration

in vivo [13] = settings: cercopithecidae, iv, 0.5 mg/kg
in vivo [14] = settings: beagle, dog, po, 2 mg/kg
Description: Bioavailability determined against adult Beagle dog at 2 mg/kg after peroral administration

in vivo [15] = settings: beagle, dog, iv, 0.5 mg/kg; remark: listed apart in the source
Description: Hail-life period determined against adult Beagle dog at 0.5 mg/kg after intravenous administration; (Number of rats = 3)

in vivo [16] = settings: cercopithecidae, iv, 0.5 mg/kg; remark: listed apart in the source
Description: Hail-life period determined against adult Rhesus monkey at 0.5 mg/kg after intravenous administration; (Number of rats = 3)

Cricetinae gen. sp. [17] = type: functional; settings: at 100 mg/kg
Cricetinae gen. sp. [18] = type: functional; settings: at 100 mg/kg; remark: listed apart in the source

| SMILES | EC50 [1] [nM] | IC50 [2] [nM] | IC50 [5] [nM] | further results |
| --- | --- | --- | --- | --- |
| CC[C@]1(C(=O)O)CCc2ccc(OCCCOc3ccc(C4CCC5(CC4)CC5)cc3Cl)cc2O1 | 300 | 610 | > 50000 | half-life (in vivo [3]): 4.5 h; clearance (in vivo [4]): 0.62 mL/min/kg; bioavailability (in vivo [6]): 37% |
| C[C@]1(C(=O)O)CCc2ccc(OCCCOc3ccc(OCC4CC4)cc3Cl)cc2O1 | 240 | 600 | > 15000 | Efficacy (Cricetinae gen. sp. [8]): -39%; Efficacy (Cricetinae gen. sp. [9]): -13%; half-life (in vivo [3]): 2.9 h; clearance (in vivo [4]): 5.1 mL/min/kg; bioavailability (in vivo [6]): 76% |
| CC(C)Oc1ccc(OCCCOc2ccc3c(c2)O[C@@](C)(C(=O)O)CC3)c(Cl)c1 | 40 | 240 | 7400 |  |
| CC[C@]1(C(=O)O)CCc2ccc(OCCCOc3ccc(C4CCC(C)(C)CC4)cc3Cl)cc2O1 | 700 | 1700 | > 50000 | half-life (in vivo [3]): 6.8 h; clearance (in vivo [4]): 2.7 mL/min/kg; bioavailability (in vivo [6]): 95% |
| C[C@]1(C(=O)O)CCc2ccc(OCCCOc3ccc(C4CCC5(CC4)CC5)cc3Cl)cc2O1 | 420 | 1600 | > 50000 |  |
| CC[C@]1(C(=O)O)CCc2ccc(OCCCOc3ccc(OCC(F)(F)F)cc3Cl)cc2O1 | 4 | 66 | > 50000 |  |
| CC[C@]1(C(=O)O)CCc2ccc(OCCCOc3ccc(C4CCOCC4)cc3Cl)cc2O1 | 22 | 710 | > 50000 | half-life (in vivo [3]): 0.9 h; clearance (in vivo [4]): 15.6 mL/min/kg; bioavailability (in vivo [6]): 77% |
| C[C@]1(C(=O)O)CCc2ccc(OCCCOc3ccc(F)cc3Cl)cc2O1 |  | > 15000 | > 50000 |  |
| O=C(O)C1CCc2ccc(OCCCOc3ccc(OCC(F)(F)F)cc3Cl)cc2O1 (stereo unspecified) | 120 | 810 | 6900 |  |
| C[C@@]1(C(=O)O)CCc2ccc(OCCCOc3ccc(OCC(F)(F)F)cc3Cl)cc2O1 |  | > 50000 | > 50000 | EC50 [10]: Not Active |
| CC1(C)CCC(c2ccc(OCCCOc3ccc4c(c3)O[C@@](C)(C(=O)O)CC4)c(Cl)c2)CC1 | 1000 | 1700 | > 50000 |  |
| C[C@]1(C(=O)O)CCc2ccc(OCCCOc3ccc(OCC4CCC4)cc3Cl)cc2O1 | 140 | 390 | > 15000 |  |
| C[C@]1(C(=O)O)CCc2ccc(OCCCOc3ccc(OCC(F)(F)F)cc3Cl)cc2O1 | 40 | 110 | > 15000 | clearance (in vivo [11]): 5.8 mL/min/kg; bioavailability (in vivo [12]): 88%; clearance (in vivo [13]): 5.6 mL/min/kg; bioavailability (in vivo [14]): 100%; half-life (in vivo [15]): 6.2 h; Efficacy (Cricetinae gen. sp. [8]): -60%; Efficacy (Cricetinae gen. sp. [9]): -54%; half-life (in vivo [3]): 2.7 h; half-life (in vivo [16]): 2.5 h; clearance (in vivo [4]): 5.1 mL/min/kg; bioavailability (in vivo [6]): 60% |
| C[C@]1(C(=O)O)CCc2ccc(OCCCOc3ccc(Oc4ccc(F)cc4)cc3Cl)cc2O1 | 61 | 140 | 5000 |  |
| COc1ccc(OCCCOc2ccc3c(c2)O[C@@](C)(C(=O)O)CC3)c(Cl)c1 |  | 3900 | > 50000 |  |
| CC[C@]1(C(=O)O)CCc2ccc(OCCCOc3ccc(C(F)(F)F)cc3Cl)cc2O1 | 36 | 90 | 2300 |  |
| CCOc1ccc(OCCCOc2ccc3c(c2)O[C@@](C)(C(=O)O)CC3)c(Cl)c1 | 220 | 1380 | > 15000 |  |
| CC[C@]1(C(=O)O)CCc2ccc(OCCCOc3ccc(F)cc3Cl)cc2O1 |  | > 15000 | > 15000 | EC50 [10]: Not Active |
| CC(C)(C)c1ccc(OCCCOc2ccc3c(c2)O[C@@](C)(C(=O)O)CC3)c(Cl)c1 | 80 | 230 | > 15000 |  |
| CC[C@]1(C(=O)O)CCc2ccc(OCCCOc3ccc(Cl)cc3Cl)cc2O1 | 130 | 400 | 4100 |  |
| CC[C@]1(C(=O)O)CCc2ccc(OCCCOc3ccc(C(C)(C)C)cc3Cl)cc2O1 | 28 | 180 | > 50000 |  |
| CC(C)OC(=O)C(C)(C)Oc1ccc(C(=O)c2ccc(Cl)cc2)cc1 [FENOFIBRATE] |  |  |  | Efficacy (Cricetinae gen. sp. [17]): -23%; Efficacy (Cricetinae gen. sp. [18]): -43% |

The next lines start with results.

| EC50 [1] [nM] | IC50 [2] [nM] | IC50 [5] [nM] | SMILES | further results |
| --- | --- | --- | --- | --- |
| 5 | 15 | > 50000 | CC[C@]1(C(=O)O)CCc2ccc(OCCCOc3ccc(C4CCCCC4)cc3Cl)cc2O1 | half-life (in vivo [3]): 1.2 h; clearance (in vivo [4]): 8.2 mL/min/kg; bioavailability (in vivo [6]): 57% |
| 23 | 48 | > 15000 | CC(C)c1ccc(OCCCOc2ccc3c(c2)O[C@@](C)(C(=O)O)CC3)c(Cl)c1 | Efficacy (Cricetinae gen. sp. [7]): -18%; Efficacy (Cricetinae gen. sp. [8]): -40%; half-life (in vivo [3]): 1.3 h; clearance (in vivo [4]): 6.8 mL/min/kg; bioavailability (in vivo [6]): 54% |
| 2 | 28 | > 15000 | C[C@]1(C(=O)O)CCc2ccc(OCCCOc3ccc(C4CCCCC4)cc3Cl)cc2O1 |  |
| 7 | 29 | > 50000 | CC[C@]1(C(=O)O)CCc2ccc(OCCCOc3ccc(CC(C)C)cc3Cl)cc2O1 |  |
| 6 | 16 | 7600 | CC(C)Cc1ccc(OCCCOc2ccc3c(c2)O[C@@](C)(C(=O)O)CC3)c(Cl)c1 | Efficacy (Cricetinae gen. sp. [7]): -29%; Efficacy (Cricetinae gen. sp. [8]): -50%; half-life (in vivo [3]): 2.9 h; clearance (in vivo [4]): 2.6 mL/min/kg; bioavailability (in vivo [6]): 87% |
| 20 | 57 | 490 | C[C@]1(C(=O)O)CCc2ccc(OCCCOc3ccc(OC(F)(F)F)cc3Cl)cc2O1 |  |
| 24 | 38 | > 15000 | CC[C@]1(C(=O)O)CCc2ccc(OCCCOc3ccc(C(C)C)cc3Cl)cc2O1 |  |
| 6 | 37 | 1900 | CC[C@]1(C(=O)O)CCc2ccc(OCCCOc3ccc(OC(F)(F)F)cc3Cl)cc2O1 |  |
| 9 | 40 | 10500 | C[C@]1(C(=O)O)CCc2ccc(OCCCOc3ccc(C4CCCC4)cc3Cl)cc2O1 | Efficacy (Cricetinae gen. sp. [7]): -21%; Efficacy (Cricetinae gen. sp. [8]): -40%; half-life (in vivo [3]): 1.3 h; clearance (in vivo [4]): 6.8 mL/min/kg; bioavailability (in vivo [6]): 54% |
| 4 | 7 | 14000 | CCC(C)(C)c1ccc(OCCCOc2ccc3c(c2)O[C@@](C)(C(=O)O)CC3)c(Cl)c1 |  |
